Assay results published in patent US12606566B2, “Substituted cyclopenta[4,5]pyrrolo[1,2-a]pyrazines as bruton's tyrosine kinase inhibitors” (Shanghai Synergy Pharmaceutical Sciences Co., Ltd., priority 2020, dated 2026).

Legend:
[1] = molecular target: BTK kinase (Homo sapiens, UniProt Q06187); assay: BTK kinase inhibitory activity, mobility shift method; assay type: biochemical; conditions: compound co-incubated with the enzyme for 30 minutes
Protocol: The BTK kinase inhibitory activity of the compound was determined using a mobility shift method with the reaction system (kinase solution, ATP, kinase substrate2). The compound was co-incubated with the enzyme for 30 minutes, and then the conversion rate was read using the Caliper EZ reader. The compound inhibition rate was determined using the calculation formula and the data was fitted using Graphpad to derive the IC50 value for the compounds of this application.

[2] = tested on: tumour cells (A20 5E6 cells); assay: Inhibitory effect on tumour cell proliferation (CCK8); assay type: cell-based; conditions: CCK8 absorbance, read-out: Inhibitory effect of the compound on cell proliferation IC50
Protocol: This experiment was to determine the effect of the compound on cell proliferation.
To determine the inhibitory effect of the compound on the proliferation of tumour cells, tumour cells (A20 5E6 cells) were cultured to a certain amount and seeded into 96-well plates. […] The absorbance value was measured after the addition of CCK8 and 2 h incubation to determine the inhibitory effect of the compound on cell proliferation. The IC50 value of the compound was obtained by data fitted with Graphpad.

BTK kinase, sequence (Q06187 whole entry): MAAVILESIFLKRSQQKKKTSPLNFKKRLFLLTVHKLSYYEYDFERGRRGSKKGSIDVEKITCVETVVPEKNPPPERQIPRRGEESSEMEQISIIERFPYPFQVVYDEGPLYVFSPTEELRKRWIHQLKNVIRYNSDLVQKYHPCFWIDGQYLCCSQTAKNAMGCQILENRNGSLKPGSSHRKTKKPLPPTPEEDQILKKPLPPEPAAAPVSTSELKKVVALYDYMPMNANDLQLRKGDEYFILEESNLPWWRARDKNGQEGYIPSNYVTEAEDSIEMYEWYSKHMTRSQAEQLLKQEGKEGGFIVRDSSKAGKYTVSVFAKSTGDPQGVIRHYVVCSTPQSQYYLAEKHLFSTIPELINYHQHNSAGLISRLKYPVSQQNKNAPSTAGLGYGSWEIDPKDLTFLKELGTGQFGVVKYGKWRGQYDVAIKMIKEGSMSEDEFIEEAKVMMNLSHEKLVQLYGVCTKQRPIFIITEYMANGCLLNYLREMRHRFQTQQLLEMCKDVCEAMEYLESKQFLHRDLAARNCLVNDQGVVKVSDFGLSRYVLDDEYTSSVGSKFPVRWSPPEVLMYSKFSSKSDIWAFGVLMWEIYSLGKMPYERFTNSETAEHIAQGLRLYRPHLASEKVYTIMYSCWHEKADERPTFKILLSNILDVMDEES

Row | Compound | IC50 [1] [nM] | IC50 [2] [nM]
1 | C[C@H]1CN(C2COC2)CCN1c1ccc(Nc2cc(-c3cc(C#N)cc(N4CCn5c(cc6c5CC(C)(C)C6)C4=O)c3CO)cn(C)c2=O)nc1 [Example H05, (S)-3-(7,7-dimethyl-1-oxo-1,3,4,6,7,8-hexahydro-2H-cyclopenta [4,5]pyrrolo[1,2-a]pyrazin-2-yl)-4-(hydroxymethyl)-5-(1-methyl-5-((5-(2-methyl-4-(oxetan-3-yl)piperazin-1-yl)pyridin-2-yl)amino)-6-oxo-1,6-dihydropyridin-3-yl) benzonitrile] | 0.69 | 23
2 | C[C@H]1CN(C2COC2)CCN1c1ccc(Nc2cc(-c3c(C#N)ccc(N4CCn5c(cc6c5CC(C)(C)C6)C4=O)c3CO)cn(C)c2=O)nc1 [Example H07, (S)-4-(7,7-dimethyl-1-oxo-1,3,4,6,7,8-hexahydro-2H-cyclopenta [4,5]pyrrolo[1,2-a]pyrazin-2-yl)-3-(hydroxymethyl)-2-(1-methyl-5-((5-(2-methyl-4-(oxetan-3-yl)piperazin-1-yl)pyridin-2-yl)amino)-6-oxo-1,6-dihydropyridin-3-yl) benzonitrile] | 0.38 | 40
3 | C[C@H]1CN(C2COC2)CCN1c1ccc(Nc2cc(-c3ccnc(N4CCn5c6c(c(Cl)c5C4=O)CC(C)(C)C6)c3CO)cn(C)c2=O)nc1 [Example H02, (S)-9-chloro-2-(3′-(hydroxymethyl)-1-methyl-5-((5-(2-methyl-4-(oxetan-3-yl)piperazin-1-yl)pyridin-2-yl)amino)-6-oxo-1,6-dihydro-[3,4′-bipyridin]-2′-yl)-7,7-dimethyl-3,4,7,8-tetrahydro-2H-cyclopenta[4,5]pyrrolo[1,2-a]pyrazin-1(6H)-one] | 0.59 | 23
4 | C=CC(=O)N1CCC[C@@H](n2nc(-c3ccc(Oc4ccccc4)cc3)c3c(N)ncnc32)C1 [Ibrutinib, reference compound] |  | 87
5 | Cn1cc(-c2ccnc(N3CCn4c5c(c(F)c4C3=O)CC(C)(C)C5)c2CO)cc(Nc2ccc(N3CCN(C4COC4)CC3)cc2)c1=O [Example H15, 9-fluoro-2-(3′-(hydroxymethyl)-1-methyl-5-((4-(4-(oxetan-3-yl)piperazin-1-yl)phenyl)amino)-6-oxo-1,6-dihydro-[3,4′-bipyridin]-2′-yl)-7,7-dimethyl-3,4,7,8-tetrahydro-2H-cyclopenta[4,5]pyrrolo[1,2-a]pyrazin-1(6H)-one] | 0.68 | 23
6 | CC(C)Oc1c2c(n3c1C(=O)N(c1nccc(-c4cc(Nc5ccc(N6CCN(C7COC7)C[C@@H]6C)cn5)c(=O)n(C)c4)c1CO)CC3)CC(C)(C)C2 [Example H24, (S)-2-(3′-(hydroxymethyl)-1-methyl-5-((5-(2-methyl-4-(oxetan-3-yl)piperazin-1-yl)pyridin-2-yl)amino)-6-oxo-1,6-dihydro-[3,4′-bipyridin]-2′-yl)-9-isopropoxy-7,7-dimethyl-3,4,7,8-tetrahydro-2H-cyclopenta[4,5]pyrrolo[1,2-a]pyrazin-1(6H)-one] | 0.65 | 
7 | CC(C)n1cc(-c2ccnc(N3CCn4c(cc5c4CC(C)(C)C5)C3=O)c2CO)cc(Nc2ccc(N3CCN(C4COC4)C[C@@H]3C)cn2)c1=O [Example H04, (S)-2-(3′-(hydroxymethyl)-1-isopropyl-5-((5-(2-methyl-4-(oxetan-3-yl)piperazin-1-yl)pyridin-2-yl)amino)-6-oxo-1,6-dihydro-[3,4′-bipyridin]-2′-yl)-7,7-dimethyl-3,4,7,8-tetrahydro-2H-cyclopenta[4,5]pyrrolo[1,2-a]pyrazin-1(6H)-one] | 0.26 | 26
8 | C[C@H]1CN(C2COC2)CCN1c1ccc(Nc2cc(-c3ccnc(N4CCn5c6c(c(C(F)(F)F)c5C4=O)CC(C)(C)C6)c3CO)cn(C)c2=O)nc1 [Example H19, (S)-2-(3′-(hydroxymethyl)-1-methyl-5-((5-(2-methyl-4-(oxetan-3-yl)piperazin-1-yl)pyridin-2-yl)amino)-6-oxo-1,6-dihydro-[3,4′-bipyridin]-2′-yl)-7,7-dimethyl-9-(trifluoromethyl)-3,4,7,8-hexahydro-2H-cyclopenta[4,5]pyrrolo[1,2-a]pyrazine-1(6H)-one] | 0.52 | 
9 | CCOc1c2c(n3c1C(=O)N(c1nccc(-c4cc(Nc5ccc(N6CCN(C7COC7)C[C@@H]6C)cn5)c(=O)n(C)c4)c1CO)CC3)CC(C)(C)C2 [Example H20, (S)-9-ethoxy-2-(3′-(hydroxymethyl)-1-methyl-5-((5-(2-methyl-4-(oxetan-3-yl)piperazin-1-yl)pyridin-2-yl)amino)-6-oxo-1,6-dihydro-[3,4′-bipyridyl]-2′-yl)-7,7-dimethyl-3,4,7,8-tetrahydro-2H-cyclopenta[4,5]pyrrolo[1,2-a]pyrazin-1(6H)-one] | 0.55 | 
10 | C[C@H]1CN(C2COC2)CCN1c1ccc(Nc2cc(-c3ccnc(N4CCn5c6c(c(N)c5C4=O)CC(C)(C)C6)c3CO)cn(C)c2=O)nc1 [Example H25, (S)-9-amino-2-(3′-(hydroxymethyl)-1-methyl-5-((5-(2-methyl-4-(oxetan-3-yl)piperazin-1-yl)pyridin-2-yl)amino)-6-oxo-1,6-dihydro-[3,4′-bipyridin]-2′-yl)-7,7-dimethyl-3,4,7,8-tetrahydro-2H-cyclopenta[4,5]pyrrolo[1,2-a]pyrazin-1(6H)-one] | 0.44 | 
11 | CC1(C)Cc2cc3n(c2C1)CCN(c1nccc(-c2cc(Nc4ccc(N5CCN(C6COC6)CC5)cn4)c4occc4n2)c1CO)C3=O [Example H09, 2-(3-(hydroxymethyl)-4-(7-((5-(4-(oxetan-3-yl)piperazin-1-yl)pyridin-2-yl)amino)furo[3,2-b]pyridin-5-yl)pyridin-2-yl)-7,7-dimethyl-3,4,7,8-tetrahydro-2H-cyclopenta[4,5]pyrrolo[1,2-a]pyrazin-1(6H)-one] | 0.71 | 31
12 | C[C@H]1CN(C2COC2)CCN1c1ccc(Nc2cc(-c3ccnc(N4CCn5c6c(c(OC7CC7)c5C4=O)CC(C)(C)C6)c3CO)cn(C)c2=O)nc1 [Example H23, (S)-9-cyclopropoxy-2-(3′-(hydroxymethyl)-1-methyl-5-((5-(2-methyl-4-(oxetan-3-yl)piperazin-1-yl)pyridin-2-yl)amino)-6-oxo-1,6-dihydro-[3,4′-bipyridin]-2′-yl)-7,7-dimethyl-3,4,7,8-tetrahydro-2H-cyclopenta[4,5]pyrrolo[1,2-a]pyrazin-1(6H)-one] | 0.51 | 
13 | CN1CCN(c2ccc(Nc3cc(-c4ccnc(N5CCn6c(cc7c6CC(C)(C)C7)C5=O)c4CO)nc4ccoc34)nc2)CC1 [Example H08, 2-(3-(hydroxymethyl)-4-(7-((5-(4-methylpiperazin-1-yl)pyridin-2-yl)amino)furo[3,2-b]pyridin-5-yl)pyridin-2-yl)-7,7-dimethyl-3,4,7,8-tetrahydro-2H-cyclopenta[4,5]pyrrolo[1,2-a]pyrazin-1(6H)-one] | 0.23 | 29
14 | CNc1c2c(n3c1C(=O)N(c1nccc(-c4cc(Nc5ccc(N6CCN(C7COC7)C[C@@H]6C)cn5)c(=O)n(C)c4)c1CO)CC3)CC(C)(C)C2 [Example H26, (S)-2-(3′-(hydroxymethyl)-1-methyl-5-((5-(2-methyl-4-(oxetan-3-yl)piperazin-1-yl)pyridin-2-yl)amino)-6-oxo-1,6-dihydro-[3,4′-bipyridin]-2′-yl)-9-methylamino-7,7-dimethyl-3,4,7,8-tetrahydro-2H-cyclopenta[4,5]pyrrolo[1,2-a]pyrazin-1(6H)-one] | 0.46 | 
15 | C[C@H]1CN(C2COC2)CCN1c1ccc(Nc2cc(-c3ccc(C#N)c(N4CCn5c(cc6c5CC(C)(C)C6)C4=O)c3CO)cn(C)c2=O)nc1 [Example H06, (S)-2-(7,7-dimethyl-1-oxo-1,3,4,6,7,8-hexahydro-2H-cyclopenta [4,5]pyrrolo[1,2-a]pyrazin-2-yl)-3-(hydroxymethyl)-4-(1-methyl-5-((5-(2-methyl-4-(oxetan-3-yl)piperazin-1-yl)pyridin-2-yl)amino)-6-oxo-1,6-dihydropyridin-3-yl) benzonitrile] | 0.41 | 31
16 | CN1CCN(c2ccc(Nc3cc(-c4ccnc(N5CCn6c7c(c(F)c6C5=O)CC(C)(C)C7)c4CO)cn(C)c3=O)nc2)CC1 [Example H14, 9-fluoro-2-(3′-(hydroxymethyl)-1-methyl-5-((5-(4-methylpiperazin-1-yl)pyridin-2-yl)amino)-6-oxo-1,6-dihydro-[3,4′-bipyridin]-2′-yl)-7,7-dimethyl-3,4,7,8-tetrahydro-2H-cyclopenta[4,5]pyrrolo[1,2-a]pyrazin-1(6H)-one] | 0.27 | 47
17 | Cn1cc(-c2ccnc(N3CCn4c5c(c(F)c4C3=O)CC(C)(C)C5)c2CO)cc(Nc2ccc(N3CCC4(CC3)COC4)cn2)c1=O [Example H11, 2-(5-((5-(2-oxa-7-azaspiro[3.5]nonan-7-yl)pyridin-2-yl)amino)-3′-(hydroxymethyl)-1-methyl-6-oxo-1,6-dihydro-[3,4′-bipyridin]-2′-yl)-9-fluoro-7,7-dimethyl-3,4,7,8-tetrahydro-2H-cyclopenta[4,5]pyrrolo[1,2-a]pyrazin-1(6H)-one] | 0.26 | 13
18 | C[C@H]1CN(C2COC2)CCN1c1ccc(Nc2cc(-c3ccnc(N4CCn5c6c(c(C#N)c5C4=O)CC(C)(C)C6)c3CO)cn(C)c2=O)nc1 [Example H18, (S)-2-(3′-(hydroxymethyl)-1-methyl-5-((5-(2-methyl-4-(oxetan-3-yl)piperazin-1-yl)pyridin-2-yl)amino)-6-oxo-1,6-dihydro-[3,4′-bipyridin]-2′-yl)-7,7-dimethyl-1-oxo-1,3,4,6,7,8-hexahydro-2H-cyclopenta[4,5]pyrrolo[1,2-a]pyrazine-9-carbonitrile] | 0.65 | 
